In article PMC7835950 (Frontiers in Chemistry, 2021):
Where two headings read alike, the source gives them in different places.

Biological target: T1, OGDH (Rattus norvegicus, UniProt Q5XI78)
T1 sequence (Q5XI78 41-1023): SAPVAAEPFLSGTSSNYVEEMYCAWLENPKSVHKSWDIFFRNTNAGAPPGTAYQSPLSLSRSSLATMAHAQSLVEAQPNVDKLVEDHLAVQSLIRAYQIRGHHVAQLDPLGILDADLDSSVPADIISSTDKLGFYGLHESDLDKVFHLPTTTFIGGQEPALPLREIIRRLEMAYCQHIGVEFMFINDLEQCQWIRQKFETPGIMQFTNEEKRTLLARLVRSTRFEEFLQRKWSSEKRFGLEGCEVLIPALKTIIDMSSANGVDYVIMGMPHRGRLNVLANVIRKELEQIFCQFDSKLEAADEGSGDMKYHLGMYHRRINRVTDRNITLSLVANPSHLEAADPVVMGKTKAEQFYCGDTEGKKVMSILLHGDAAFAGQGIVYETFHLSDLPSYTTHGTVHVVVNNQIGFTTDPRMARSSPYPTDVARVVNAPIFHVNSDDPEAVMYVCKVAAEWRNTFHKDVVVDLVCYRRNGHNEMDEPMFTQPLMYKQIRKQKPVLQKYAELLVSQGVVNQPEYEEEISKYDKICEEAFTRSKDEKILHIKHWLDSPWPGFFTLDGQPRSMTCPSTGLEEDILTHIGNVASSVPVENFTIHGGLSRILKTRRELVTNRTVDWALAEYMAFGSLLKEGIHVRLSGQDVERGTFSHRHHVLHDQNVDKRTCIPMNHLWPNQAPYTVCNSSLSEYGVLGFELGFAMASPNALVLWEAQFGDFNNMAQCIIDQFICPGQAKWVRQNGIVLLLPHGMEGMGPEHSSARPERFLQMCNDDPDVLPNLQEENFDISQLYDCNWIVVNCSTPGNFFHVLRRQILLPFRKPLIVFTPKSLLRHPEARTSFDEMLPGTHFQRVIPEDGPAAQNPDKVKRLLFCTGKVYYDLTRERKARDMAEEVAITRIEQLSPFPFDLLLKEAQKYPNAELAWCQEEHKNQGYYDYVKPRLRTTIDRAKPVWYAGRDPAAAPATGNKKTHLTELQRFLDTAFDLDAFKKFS
T1 sequence (Q01205 69-454 partner): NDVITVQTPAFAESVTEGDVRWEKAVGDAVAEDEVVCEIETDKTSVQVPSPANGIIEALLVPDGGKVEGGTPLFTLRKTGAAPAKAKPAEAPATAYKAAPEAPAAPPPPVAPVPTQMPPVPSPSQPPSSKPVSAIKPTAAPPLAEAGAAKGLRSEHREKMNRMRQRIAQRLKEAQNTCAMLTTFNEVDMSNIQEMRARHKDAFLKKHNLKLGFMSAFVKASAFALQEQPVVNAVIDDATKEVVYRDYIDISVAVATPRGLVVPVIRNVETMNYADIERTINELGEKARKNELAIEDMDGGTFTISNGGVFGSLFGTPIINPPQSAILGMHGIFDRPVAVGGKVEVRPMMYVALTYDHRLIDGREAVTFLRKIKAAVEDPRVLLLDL
T1 sequence (Q6P6R2 36-509 partner): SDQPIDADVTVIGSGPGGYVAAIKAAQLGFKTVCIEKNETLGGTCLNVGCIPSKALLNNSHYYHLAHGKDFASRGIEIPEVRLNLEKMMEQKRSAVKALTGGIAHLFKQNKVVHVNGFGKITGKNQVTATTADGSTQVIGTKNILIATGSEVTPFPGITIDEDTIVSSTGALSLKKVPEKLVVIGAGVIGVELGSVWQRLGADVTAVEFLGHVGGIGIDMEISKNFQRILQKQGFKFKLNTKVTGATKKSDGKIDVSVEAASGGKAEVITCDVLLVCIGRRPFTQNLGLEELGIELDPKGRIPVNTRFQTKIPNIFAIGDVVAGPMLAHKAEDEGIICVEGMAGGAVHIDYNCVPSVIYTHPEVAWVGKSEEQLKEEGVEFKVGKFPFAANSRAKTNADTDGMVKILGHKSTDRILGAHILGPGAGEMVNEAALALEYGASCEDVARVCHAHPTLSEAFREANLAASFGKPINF
Test: OADH reaction (OA saturation) catalyzed by the enzyme preparation from rat heart
Format: biochemical
Design: the tissue fractions with the complexes enriched to a degree allowing for a robust detection of the enzymatic activities, have been used; from tissue; host or cells: rat heart
Conditions: for Ki / Amax: OADH reaction, heart
Protocol: Enzymes catalyzing OGDH and OADH reactions were enriched from rat hearts and livers using polyethylene glycol precipitation, as previously described (Artiukhov et al., [2020]).
The enzyme activities were assayed in the medium (pH 7.0) containing 50 mM MOPS, 1 mM ThDP, 1 mM MgCl2, 1 mM CaCl2, 1 mM dithiothreitol 0.15 mM Coenzyme A, 0.25 mM NAD^+ and various concentrations of 2-oxo substrates (0–10 mM OG or OA) and their phosphonate analogs (0–5,000 μM SP, GP, or AP). Reactions were started by addition of the enzyme preparations to the assay media. The amount of enzyme preparations (0.074 mg protein for the preparation from liver and 0.023 mg protein for the preparation from heart) were chosen to induce the lowest reliably measured reaction rate (ΔA340 = 0.001/min) at 0.01 mM OA without the phosphonates.
Reaction rates were calculated from linear parts of the product accumulation curves (up to 10 min, dependent on the reaction rate), excluding the initial region, where mixing the reagents and solubilization of the preparation affected the optical density.
Non-linear regression was used to approximate the experimental dependences of the reaction rates on the OG or OA concentration according to the Michaelis-Menten equation ( a=Amax*[S]/Km+[S] ) or its sum ( a=Amax*[S]/Km+[S]+Amax,2*[S]/Km,2+[S] ). The former equation describes one type of the active sites. […] The assumption was based on the presence of the two enzymes, OGDH and OADH, in the employed preparations.
The kinetic data were also analyzed by linear regression, using the known methods of the linearization of the Michaelis-Menten equation in the Lineweaver-Burk ( 1/a=1/Amax(1+Km/[S]) ) and Eadie-Hofstee ( a=Amax−Kmv/[S] ) coordinates. Due to the several orders of magnitude difference in the values of Km,1 and Km,2, the linear regression required separate analysis of the dependencies in the intervals of the low and high concentrations of 2-oxoadipate. The Km and Amax values obtained in independent experiments using the non-linear and linear regression analyses of the experimental data, were averaged and presented as Mean ± Standard Error of Mean.
To determine the inhibition constants (Ki), the effective values of Kmeff and Amaxeff , calculated from the hyperbolic or linear approximations as described above, were plotted against the concentration of the inhibitors ([I]). The linear regression of the equation Kmeff/Amaxeff=Km/Amax(1+[I]/Ki) , (Cornish-Bowden, [1979]) was applied to find the Intercept (Km/Amax) and Slope (Km/(Amax*Ki)) of a dependence. The values of Ki were determined as the ratio of the corresponding Intercepts to the Slopes. In the two-site model, the Ki(1) and Ki(2) were calculated separately from the linear approximations of Km,1eff/Amax,1eff vs. [I] and Km,2eff/Amax,2eff vs. [I] dependences, respectively. The standard errors of Ki were determined from means and standard errors of the Intercepts and the Slopes, using the previously described formula for standard deviation of a fraction (Bunik et al., [1999]). The Ki values obtained from the non-linear and linear regression analyses of the experimental data were averaged and presented as Mean ± Standard Error of Mean.

[1] = 0–10 mM OA, Michaelis-Menten, read-out: Ki, MM
[2] = Eadie-Hofstee, read-out: Ki, EH
[3] = Lineweaver-Burk, read-out: Ki, LB
[4] = average of MM, LB, EH, read-out: Ki, Average

Compound | Ki [1] [µM] | Ki [2] [µM] | Ki [3] [µM] | Ki [4] [µM] | Amax ([I] 0.5 µM) | Amax ([I] 2 µM) | Amax ([I] 10 µM) | Amax ([I] 50 µM) | Amax ([I] 200 µM) | Amax, OA saturation (heart preparation) | Amax ([I] 1000 µM)
O=C(O)CCCCC(=O)P(=O)(O)O [AP, adipoyl phosphonate] | 49 ± 8 | 40 ± 7 | 58 ± 8 | 49 ± 5 | 0.101 ± 0.002 µmol/min per mg of protein | 0.096 ± 0.002 µmol/min per mg of protein | 0.098 ± 0.002 µmol/min per mg of protein | 0.109 ± 0.002 µmol/min per mg of protein | 0.116 ± 0.002 µmol/min per mg of protein | – | –
O=C(O)CCCC(=O)P(=O)(O)O [GP, glutaryl phosphonate] | 3.8 ± 0.1 | 3.4 ± 0.5 | 1.1 ± 0.2 | 2.8 ± 0.8 | – | 0.105 ± 0.003 µmol/min per mg of protein | 0.131 ± 0.002 µmol/min per mg of protein | 0.139 ± 0.010 µmol/min per mg of protein | 0.103 ± 0.018 µmol/min per mg of protein | – | –
O=C(O)CCCC(=O)C(=O)O [OA, 2-oxoadipate] | – | – | – | – | – | – | – | – | – | 0.102 ± 0.008 μmol/min per mg of protein | –
O=C(O)CCC(=O)P(=O)(O)O [SP, succinyl phosphonate] | 10.2 ± 0.2 | 6.3 ± 0.1 | 4.7 ± 0.3 | 7.1 ± 1.6 | – | – | 0.109 ± 0.001 µmol/min per mg of protein | 0.109 ± 0.006 µmol/min per mg of protein | 0.106 ± 0.004 µmol/min per mg of protein | – | 0.075 ± 0.123 µmol/min per mg of protein
